Measurements as given in PMC6143625, “A high throughput screen for next-generation leads targeting malaria parasite transmission” (Nature Communications, 2018).
Where “and” joins values, the source holds several entries; their conditions need not be identical. Identical values can stand only once.

Key:
[1] = tested on: P. berghei 507 strain in mice, transmission to Anopheles stephensi; test: P. berghei mosquito (direct) feeding assay in infected mice; assay type: in vivo, Plasmodium berghei; settings: for Asexual parasitemia (%) Before treatment / Gametocytemia (%) Before treatment / Asexual parasitemia (%) 24hr After treatment / Gametocytemia (%) 24hr After treatment: 50mg/kg; for Asexual parasitemia (%) Before treatment / Gametocytemia (%) Before treatment: baseline
Experimental: Six- to eight-week female T0 mice were treated with phenylhydrazine 3 days prior to intraperitoneal (IP) inoculation with 100 µl of mouse blood infected with the constitutively GFP expressing P. berghei 507 strain[39]. On day 3 after infection, thin blood smears were taken from tail blood to quantify parasitaemia and gametocytaemia. […] […] Twenty-four hours after feeding, unfed mosquitoes were removed and remaining mosquitoes maintained for a further 9 days on sucrose solution. Mosquito midguts were then dissected, imaged and oocysts quantified by semi-automated computer analysis.

[2] = tested on: NF54 stage V gametocytes; test: Gametocytocidal MitoTracker-based viability assay (SaLSSA); assay type: cell-based, Plasmodium falciparum NF54; settings: Plasmodium falciparum, NF54; 72h incubation; read-out: Pf Stage V GCT (mitotracker assay) IC50
Experimental: As another independent assessment of the metabolic viability of compound-treated stage V gametocytes, the Saponin-lysis Sexual Stage Assay (SaLSSA) was employed. A volume of 100 nl of test compounds were pre-dispensed in 384-well plates (781091-2B, Greiner) in 12-point dose response (25 µM to 1.41 × 10^−4 µM), prior to the addition of synchronous NF54 stage V gametocytes (40 µl at 0.70% gametocytaemia). Assay plates were then incubated for 72 h in a low oxygen environment (92% N2, 5% CO2, 3%O2) before a 10 µl MitoTracker Red CMXRos (2.5 µM) and saponin solution (0.13%w/v) was added. Plates were returned to 37 °C for 1 h to allow for complete red blood cell lysis, after which viable gametocytes were detected using an Operetta high-content imaging system. Analysis was performed using the Harmony package software, with potency calculated relative to puromycin (positive control) and DMSO (negative control).

[3] = tested on: P. falciparum female gametocytes; test: Pf DGFA wash-out format, female readout; assay type: cell-based; settings: Plasmodium falciparum; 48h preincubation/wash-out
[4] = tested on: P. falciparum male gametocytes; test: Pf DGFA wash-out format, male readout; assay type: cell-based; settings: Plasmodium falciparum; 48h preincubation/wash-out
[5] = tested on: P. falciparum male gametogenesis; test: Phenotypic immunofluorescence assay of male gamete formation; assay type: cell-based, Plasmodium falciparum; settings: 10 µM, 24 h treatment, 0–20 min post induction
Experimental: In vitro evolution followed by whole-genome analysis is the primary approach currently used for understanding how compounds act in malaria parasites. As it is not currently feasible to generate resistant mutants to compounds that are only active in the gametocyte stage (resistance generation requires extensive rounds of replication in the presence of compound), phenotypic immunofluorescence assays were performed to evaluate compound activity on male gamete formation. Gametocytes treated with 10 µM of each compound were sampled at 0, 2, 3, 4, 6, 8, 10, and 20 min post induction of gamete formation before imaging (Fig. 4). Individual male cells were then extracted from the images and analysed for shape and haploid chromosome number/DNA content to quantitatively measure the progression of DNA replication (n = 198–668 cells) (Fig. 5a).
Day 14 gametocyte culture was divided into 4 ml aliquots and treated either with DMSO or 10 µM test compound. After 24 h, 500 µl aliquots of the non-activated gametocytes were fixed in an equal volume of 8% paraformaldehyde (PFA) warmed to 37 °C to generate Time = 0 min (t = 0) samples. Gamete formation was induced in the remainder of the cultures by cooling to RT and addition of 500 µl ookinete medium. At t = 2, 3, 4, 6, 8, 10, and 20 min 500 µl of culture was removed and immediately fixed in equal volume of 8% PFA at room temperature for 15 min. Fixed cells were diluted in PBS and allowed to settle onto poly-L-lysine-coated glass coverslips overnight. The next day, cells were washed in PBS, permeabilized in 0.1% Triton X-100 and blocked in PBS + 10% FBS. Cells were stained with mouse anti-alpha tubulin (Sigma) clone DM1A (1:500 dilution) and rabbit anti-Glycophorin A (Abcam) clone EPR8200 (1:1000 dilution). Staining was visualised with anti-mouse […] and anti-rabbit Alexa555 (Thermo-Fisher) both at 1:1000 dilution. Coverslips were mounted onto glass slides with VectaShield mountant (Vector Laboratories) containing 4′,6-diamidino-2-phenylindole (DAPI) to visualise cellular DNA. Cells were imaged at random (n = 195–668 cells per test compound) using a Nikon Ti-E widefield microscope using a × 100 objective lens and taken in 0.2 µm slice z-stack images to capture the whole cell. All images were converted to maximum intensity projections in NIS Elements v4.20 and all further image processing performed in ICY. Individual cells were manually selected and automatically extracted from each image using the Active Contours plugin gated to the tubulin staining. Using the ROI Statistics plugin, the following parameters were calculated for each cell and exported to MS Excel: Cell area, Cell roundness, Cell elongation, and Average intensity of blue channel (DNA). […] Outlier cells from the curve were all exflagellating (Supplementary Fig. 6). These two parameters were combined as a ratio of roundness:elongation to produce the parameter Cell shape. Cellular DNA content was estimated by multiplying the average pixel intensity of the blue channel (after subtracting the background intensity of an empty area in the same parent image) with the total cell area.

[6] = tested on: HepG2 cells; test: HepG2 toxicity (CellTiter-Glo, parallel to liver stage assay); assay type: cell-based, human; settings: human, 48 h
Experimental: Compound inhibition of P. berghei sporozoite liver infection was assessed in a high-throughput luciferase assay. 1536-well plates (789173-F, Greiner Bio-One) were pre-seeded with 5 µl HepG2-A16-CD81^EGFP cells grown in DMEM (11965–092, Invitrogen) containing 10% FBS (35–011-CV, Corning) and 1× Pen Strep Glutamine (10378–016, Invitrogen). Then, 50 nl of compound in DMSO was dispensed in 12-point serial dilution dose-response format (50 µM to 2.82 × 10^−4 µM), and incubated overnight.A. stephensi mosquitoes infected with P. berghei-ANKA-GFP-Luc-SMCON (Pb-Luc)[41] sporozoites bearing the antifolate-resistance-conferring Toxoplasma gondii dihydrofolate reductase-thymidylate synthase selectable marker, pyR2. After dissection, ~1000 sporozoites in 5 µl screening media (DMEM, 11965–092, Invitrogen; 5% FBS, 35–011-CV, Corning; 5x Pen Strep Glutamine, 10378–016, Invitrogen) were added per well and incubated for 48 h (37 °C, 5% CO2). Bioluminescence was measured using an EnVision microplate reader (Perkin Elmer), following the addition of 2 µl per well of Bright-Glo™ (Promega). Compound toxicity against HepG2 cells was determined in parallel by measuring cellular ATP levels reported by luciferase activity. Methods were similar to the P. berghei liver stage assay, except for the addition of CellTiter-Glo® (Promega) as a detection reagent. DMSO (0.5%) was used as a negative control in both assays, with Atovaquone (5 µM) and Puromycin (10 µM) acting as positive controls in the P. berghei and toxicity assays, respectively.

[7] = per mouse, listed as DDD291, 50 mg/kg
[8] = per mouse, listed as DDD504, 50 mg/kg

Row | SMILES | transmission blocking efficacy at the oocyst level ([1]; 50 mg kg^−1 IP, 24 h before mosquito feeding) | suppression of gametocytaemia compared to vehicle-only controls ([1]; 50 mg kg^−1 IP, 24 h exposure) | effect on asexual parasitaemia ([1]; 50 mg kg^−1 IP, single dose) | Infection Prevalence (%) ([1]; Dose 24hr prior to feeding, per mouse) | Mean oocysts per mosquito ([1]; Dose 24hr prior to feeding, per mouse, listed as DDD291) | Asexual parasitemia (%) Before treatment [1, 7] | Gametocytemia (%) Before treatment [1, 7] | Asexual parasitemia (%) 24hr After treatment [1, 7] | Gametocytemia (%) 24hr After treatment [1, 7] | IC50 [2] [µM] | IC50 [3] [µM] | IC50 [4] [µM] | phenotype of male gametogenesis (IFA) [5] | Human HepG2 assay TOX50 [6] [µM] | Asexual parasitemia (%) Before treatment [1, 8] | Gametocytemia (%) Before treatment [1, 8] | Asexual parasitemia (%) 24hr After treatment [1, 8] | Gametocytemia (%) 24hr After treatment [1, 8]
1 | OC1(CN2CCC(Oc3cccc(C(F)(F)F)c3)CC2)CCNC1 (centres unmarked) [DDD01245291] | not possible to measure a reduction in transmission at the oocyst level | ~ 6 fold | did not affect asexual parasitaemia | 100 | 239.06 and 211.28 | 0.86% and 0.55% | 0.32% and 0.16% | 5.70% and 4.55% | 0.30% and 0.51% | > 12.5 | 1.51 | 0.68 | arrested after rounding up | 21.70 | – | – | – | –
2 | CC(C)CN1CCn2nc(CNc3ncnc4[nH]ccc34)cc2C1 [DDD01249504] | – | – | – | – | – | – | – | – | – | > 25 | > 25 | 2.74 | the second and third divisions were delayed with a smaller proportion of cells reaching 8n | >50.0 | 0.74% and 0.98% | 0.21% and 0.15% | 5.35% and 7.03% | 1.21% and 1.88%
